# Assay results: US9968565B2, “Method for protection and improvement of liver health with meso-zeaxanthin compositions” (OMNIACTIVE HEALTH TECHNOLOGIES LIMITED, priority 2015, dated 2018)
# System: HepG2 cells
# Assay: In vitro fatty liver model, lipid content in oleic acid-treated HepG2 hepatocytes (Adipored staining)
# Assay type: cell-based
# Conditions: HepG2, 1.5 mM Oleic Acid + 100 uM
# Method: HepG2 cells were seeded at a density of 5×10^4 cells/mL in 24 well plates and cultured to 100% confluency. Once 100% confluent, HepG2 Growth Media (ATCC-formulated Eagle's Minimum Essential Media (EMEM) 500 mL+10% FBS-50 mL+1% pen/strep antibiotic-5 mL) was […] fetal bovine serum (FBS) Free Growth Media (1 mL per well) for 24 hours. Following 24 hour FBS-free conditions, cells were treated with differing concentrations of Oleic Acid (0.5, 1.0, 1.5, 2.0 mM; Sigma O3008) to induce fatty liver conditions. From preliminary Adipored Staining data, 1.5 mM Oleic Acid (OA) was deemed the most appropriate concentration of OA to induce maximum steatosis (accumulation of large vacuoles of triglyceride fat in liver cells—thus it is abnormal retention of lipids within a cell) while remaining non-cytotoxic.
compound,measurement,value
C[C@@H]1O[C@@H](OC[C@H]2O[C@@H](Oc3c(-c4ccc(O)c(O)c4)oc4cc(O)cc(O)c4c3=O)[C@H](O)[C@@H](O)[C@@H]2O)[C@H](O)[C@H](O)[C@H]1O [Rutin],% Decrease in Lipid Content,22%
same,Lipid Content,23088.67
